Key:
Format in all cases: in vivo
[1] = tested on: Pyrenophora teres (Helminthosporium); test: Assay B-10: Effect against Pyrenophora teres (Helminthosporium)/barley (net blotch on barley); settings: Pyrenophora teres on barley cv. Regina; 0.02% active substance, spray
Description: Assay B-10: Effect Against Pyrenophora teres (Helminthosporium)/Barley (Net Blotch on Barley) 1 week old barley plants cv. Regina are treated with a formulated testcompound (0.02% active substance) in a spray chamber. Two days after application barley plants are inoculated by spraying a spore suspension (3×10^4 conidia/ml) on the test plants. After an incubation period of 2 days at 20° C. and 95% r.h. plants are kept for 2 days at 20° C. and 60% r.h. in a greenhouse. The disease incidence is assessed 4 days after inoculation.

Botrytis cinerea [2] = test: Assay B-7: Botrytis cinerea/grape (Botrytis on grapes); settings: Botrytis cinerea on grape seedlings cv. Gutedel; 0.02% active substance, spray
Description: Assay B-7: Botrytis cinerea/Grape (Botrytis on Grapes) 5 week old grape seedlings cv. Gutedel are treated with the formulated testcompound (0.02% active substance) in a spray chamber. Two days after application grape plants are inoculated by spraying a spore suspension (1×10^6 conidia/ml) on the test plants. After an incubation period of 4 days at 21° C. and 95% r. h. in a greenhouse the disease incidence is assessed.

Septoria nodorum = test: Assay B-12: Effect against Septoria nodorum/wheat (Septoria leaf spot on wheat); settings: Septoria nodorum on wheat cv. Arina; 0.02% active substance, spray
Description: Assay B-12: Effect Against Septoria nodorum/Wheat (Septoria Leaf Spot on Wheat) 1 week old wheat plants cv. Arina are treated with a formulated test compound (0.02% active substance) in a spray chamber. One day after application wheat plants are inoculated by spraying a spore suspension (5×10^5 conidia/ml) on the test plants. After an incubation period of 1 day at 20° C. and 95% r.h. plants are kept for 10 days at 20° C. and 60% r.h. in a greenhouse. The disease incidence is assessed 11 days after inoculation.

Botrytis cinerea [3] = test: Assay B-8: Effect against Botrytis cinerea/tomato (Botrytis on tomatoes); settings: Botrytis cinerea on tomato cv. Roter Gnom; 0.02% active substance, spray
Description: Assay B-8: Effect Against Botrytis cinerea/Tomato (Botrytis on Tomatoes) 4 week old tomato plants cv. Roter Gnom are treated with the formulated testcompound 0.02% active substance) in a spray chamber. Two days after application tomato plants are inoculated by spraying a spore suspension (1×10^5 conidia/ml) on the test plants. After an incubation period of 4 days at 20° C. and 95% r. h. in a greenhouse the disease incidence is assessed.

CCCC(CO)Nc1cc(-c2ccnc(Nc3cccc(Cl)c3)n2)ccn1 (stereo not shown) [Compound 27]
B10 activity [1]: + (the activity observed in the corresponding test system is 70% or more)
B7 activity (Botrytis cinerea [2]): + (the activity observed in the corresponding test system is 70% or more)
B12 activity (Septoria nodorum): + (the activity observed in the corresponding test system is 70% or more)
B8 activity (Botrytis cinerea [3]): + (the activity observed in the corresponding test system is 70% or more)

CC(CCn1ccnc1)Nc1cc(-c2ccnc(Nc3cccc(Cl)c3)n2)ccn1 (stereo not shown) [Compound 16]
B10 activity [1]: + (the activity observed in the corresponding test system is 70% or more)
B12 activity (Septoria nodorum): + (the activity observed in the corresponding test system is 70% or more)
B8 activity (Botrytis cinerea [3]): + (the activity observed in the corresponding test system is 70% or more)

CC(CCNc1cc(-c2ccnc(Nc3cccc(Cl)c3)n2)ccn1)n1ccnc1 (stereo not shown) [Compound 36]
B10 activity [1]: + (the activity observed in the corresponding test system is 70% or more)

CN(C)C=Nc1cc(-c2ccnc(Nc3cccc(Cl)c3)n2)ccn1 [Compound 97]
B10 activity [1]: + (the activity observed in the corresponding test system is 70% or more)
B12 activity (Septoria nodorum): + (the activity observed in the corresponding test system is 70% or more)
B8 activity (Botrytis cinerea [3]): + (the activity observed in the corresponding test system is 70% or more)

COC(CNc1cc(-c2ccnc(Nc3cccc(Cl)c3)n2)ccn1)OC [Compound 87]
B10 activity [1]: + (the activity observed in the corresponding test system is 70% or more)
B12 activity (Septoria nodorum): + (the activity observed in the corresponding test system is 70% or more)

CS(=O)(=O)O.Clc1cccc(Nc2nccc(-c3ccnc(NCCCn4ccnc4)c3)n2)c1 [Compound 49]
B10 activity [1]: + (the activity observed in the corresponding test system is 70% or more)
B7 activity (Botrytis cinerea [2]): + (the activity observed in the corresponding test system is 70% or more)
B12 activity (Septoria nodorum): + (the activity observed in the corresponding test system is 70% or more)
B8 activity (Botrytis cinerea [3]): + (the activity observed in the corresponding test system is 70% or more)

Clc1cccc(Nc2nccc(-c3ccnc(NCc4ccccn4)c3)n2)c1 [Compound 79]
B10 activity [1]: + (the activity observed in the corresponding test system is 70% or more)
B8 activity (Botrytis cinerea [3]): + (the activity observed in the corresponding test system is 70% or more)

CCCCC(=O)Nc1cc(-c2ccnc(Nc3cccc(Cl)c3)n2)ccn1 [Compound 62]
B10 activity [1]: + (the activity observed in the corresponding test system is 70% or more)
B12 activity (Septoria nodorum): + (the activity observed in the corresponding test system is 70% or more)

CC(O)CNc1cc(-c2ccnc(Nc3cccc(Cl)c3)n2)ccn1 (stereo not shown) [Compound 76]
B10 activity [1]: + (the activity observed in the corresponding test system is 70% or more)
B12 activity (Septoria nodorum): + (the activity observed in the corresponding test system is 70% or more)

CC(CCN(C)C)Nc1cc(-c2ccnc(Nc3cccc(Cl)c3)n2)ccn1 (stereo not shown) [Compound 19]
B8 activity (Botrytis cinerea [3]): + (the activity observed in the corresponding test system is 70% or more)

CO[Si](CCCNc1cc(-c2ccnc(Nc3cccc(Cl)c3)n2)ccn1)(OC)OC [Compound 100]
B8 activity (Botrytis cinerea [3]): + (the activity observed in the corresponding test system is 70% or more)

CS(=O)(=O)O.NCCCNc1cc(-c2ccnc(Nc3cccc(Cl)c3)n2)ccn1 [Compound 48]
B10 activity [1]: + (the activity observed in the corresponding test system is 70% or more)
B12 activity (Septoria nodorum): + (the activity observed in the corresponding test system is 70% or more)
B8 activity (Botrytis cinerea [3]): + (the activity observed in the corresponding test system is 70% or more)

CC(CCc1ccccn1)Nc1cc(-c2ccnc(Nc3cccc(Cl)c3)n2)ccn1 (stereo not shown) [Compound 71]
B10 activity [1]: + (the activity observed in the corresponding test system is 70% or more)
B12 activity (Septoria nodorum): + (the activity observed in the corresponding test system is 70% or more)

CCN(COC)c1cc(-c2ccnc(Nc3cccc(Cl)c3)n2)ccn1 [Compound 98]
B10 activity [1]: + (the activity observed in the corresponding test system is 70% or more)

O=C(Nc1cc(-c2ccnc(Nc3cccc(Cl)c3)n2)ccn1)C(F)(F)C(F)(F)F [Compound 93]
B10 activity [1]: + (the activity observed in the corresponding test system is 70% or more)
B7 activity (Botrytis cinerea [2]): + (the activity observed in the corresponding test system is 70% or more)
B8 activity (Botrytis cinerea [3]): + (the activity observed in the corresponding test system is 70% or more)

CC(=O)OCCNc1cc(-c2ccnc(Nc3cccc(Cl)c3)n2)ccn1 [Compound 52]
B10 activity [1]: + (the activity observed in the corresponding test system is 70% or more)
B12 activity (Septoria nodorum): + (the activity observed in the corresponding test system is 70% or more)

O=C(O)CNc1cc(-c2ccnc(Nc3cccc(Cl)c3)n2)ccn1 [Compound 3]
B10 activity [1]: + (the activity observed in the corresponding test system is 70% or more)
B12 activity (Septoria nodorum): + (the activity observed in the corresponding test system is 70% or more)
B8 activity (Botrytis cinerea [3]): + (the activity observed in the corresponding test system is 70% or more)

CCC(COC(C)=O)Nc1cc(-c2ccnc(Nc3cccc(Cl)c3)n2)ccn1 (stereo not shown) [Compound 51]
B10 activity [1]: + (the activity observed in the corresponding test system is 70% or more)
B12 activity (Septoria nodorum): + (the activity observed in the corresponding test system is 70% or more)

C[S+]([O-])CCNc1cc(-c2ccnc(Nc3cccc(Cl)c3)n2)ccn1 (stereo not shown) [Compound 74]
B12 activity (Septoria nodorum): + (the activity observed in the corresponding test system is 70% or more)

Clc1cccc(Nc2nccc(-c3ccnc(NC4CCOC4)c3)n2)c1 (stereo not shown) [Compound 2]
B10 activity [1]: + (the activity observed in the corresponding test system is 70% or more)
B12 activity (Septoria nodorum): + (the activity observed in the corresponding test system is 70% or more)

NCCNc1cc(-c2ccnc(Nc3cccc(Cl)c3)n2)ccn1 [Compound 1]
B10 activity [1]: + (the activity observed in the corresponding test system is 70% or more)

COCN(C)c1cc(-c2ccnc(Nc3cccc(Cl)c3)n2)ccn1 [Compound 91]
B10 activity [1]: + (the activity observed in the corresponding test system is 70% or more)
B12 activity (Septoria nodorum): + (the activity observed in the corresponding test system is 70% or more)

Clc1cccc(Nc2nccc(-c3ccnc(NCCCOc4ncccn4)c3)n2)c1 [Compound 94]
B10 activity [1]: + (the activity observed in the corresponding test system is 70% or more)
B8 activity (Botrytis cinerea [3]): + (the activity observed in the corresponding test system is 70% or more)

Clc1cccc(Nc2nccc(-c3ccnc(NCc4ccco4)c3)n2)c1 [Compound 78]
B8 activity (Botrytis cinerea [3]): + (the activity observed in the corresponding test system is 70% or more)

NCCCNc1cc(-c2ccnc(Nc3cccc(Cl)c3)n2)ccn1 [Compound 42]
B10 activity [1]: + (the activity observed in the corresponding test system is 70% or more)
B12 activity (Septoria nodorum): + (the activity observed in the corresponding test system is 70% or more)
B8 activity (Botrytis cinerea [3]): + (the activity observed in the corresponding test system is 70% or more)

CCCC(COC(C)=O)Nc1cc(-c2ccnc(Nc3cccc(Cl)c3)n2)ccn1 (stereo not shown) [Compound 53]
B8 activity (Botrytis cinerea [3]): + (the activity observed in the corresponding test system is 70% or more)

Clc1cccc(Nc2nccc(-c3ccnc(NCc4cccnc4)c3)n2)c1 [Compound 102]
B10 activity [1]: + (the activity observed in the corresponding test system is 70% or more)
B8 activity (Botrytis cinerea [3]): + (the activity observed in the corresponding test system is 70% or more)

Clc1cccc(Nc2nccc(-c3ccnc(NCCc4ccccn4)c3)n2)c1 [Compound 90]
B10 activity [1]: + (the activity observed in the corresponding test system is 70% or more)
B8 activity (Botrytis cinerea [3]): + (the activity observed in the corresponding test system is 70% or more)

Clc1cccc(Nc2nccc(-c3ccnc(NCC4CCOC4)c3)n2)c1 (stereo not shown) [Compound 84]
B10 activity [1]: + (the activity observed in the corresponding test system is 70% or more)
B12 activity (Septoria nodorum): + (the activity observed in the corresponding test system is 70% or more)
B8 activity (Botrytis cinerea [3]): + (the activity observed in the corresponding test system is 70% or more)

CCC(=O)OCCCNc1cc(-c2ccnc(Nc3cccc(Cl)c3)n2)ccn1 [Compound 106]
B10 activity [1]: + (the activity observed in the corresponding test system is 70% or more)
B12 activity (Septoria nodorum): + (the activity observed in the corresponding test system is 70% or more)
B8 activity (Botrytis cinerea [3]): + (the activity observed in the corresponding test system is 70% or more)

— patent US7109197B2, “N-phenyl-4-(4-pyridyl)-2-pyrimidineamine derivatives” (Syngenta Crop Protection, Inc., priority 2000, dated 2006)
